# Source: PMC6063804 (EJNMMI Research, 2018)
# “And” between values parts separate entries of the source, which are not always exact repeats. Equal entries are not always repeated.
# Experiments:
# [1] = test system: ion channel of NMDA-R; design: method as in PMID 25451213; settings: cited from earlier work
# [2] = test system: ion channel binding site of NMDA receptors; assay: [^18F]PK-209 brain PET, baseline versus S-ketamine infusion; assay type: in vivo, human; settings: for V ND / k 3 / K i / % ΔKi: individual subjects S6–S10; for K i: net influx rate; for % ΔKi: percentage change from the baseline scan after ketamine
# Protocol: In total, 20 PET scans were acquired on a Gemini TF-64 PET/CT scanner (Philips Medical Systems, Cleveland, OH, USA). Five subjects underwent [^18F]PK-209 test–retest (TRT) scans 31–61 days apart over a period of 211 days. Another five subjects underwent baseline and ketamine scans 13–161 days apart over a period of 258 days. At the start of each scan [^18F]PK-209 was injected as an intravenous bolus with a mean injected activity of 187 ± 7 MBq. All scans were performed between 12:00 and 15:00 h to minimize diurnal variation. Duration of daylight on each scan day was calculated to investigate seasonal changes in tracer binding. Dynamic PET data were acquired for 120 min and binned into 25 time frames (1 × 15, 3 × 5, 3 × 10, 4 × 60, 2 × 150, 2 × 300, 10 × 600 s). PET was followed by a low-dose CT (30 mAs, 120 kVp) for attenuation correction and localization. Data were reconstructed using a three-dimensional row action maximum likelihood reconstruction algorithm (3-D RAMLA). Acquired PET data were normalized and corrected for dead time, randoms, scatter, attenuation, and decay.
# The (S+)-isomer of ketamine (0.5 mg · kg^−1) was dissolved in NaCl 50 mL and administered intravenously in a pseudo-steady state model with a sub-acute loading dose. First, ketamine was administered for 40 min at a rate of 0.006 mg · kg^−1 · min^−1 followed by a 130 min equilibrium phase at 0.002 mg · kg^−1 · min^−1. [^18F]PK-209 injection and start of PET were performed at 10 min into the equilibrium phase, following 0.26 mg · kg^−1 administration in the preceding 50 min.
# Prior to the PET studies, structural three-dimensional coronal T1-weighted magnetic resonance images (MRI) were acquired for all subjects on a 1.5T Sonata scanner (Siemens Medical Solutions, Erlangen, Germany) with 160 coronal slices using echo time 3.97 ms, repetition time 2700 ms, flip angle 8°, and voxel size 1.0 × 1.5 × 1.0 mm^3. Subject motion was checked by visual inspection of the alignment of intrasubject PET frames, and no frames were excluded due to excessive movement. T1-weighted MRI scans were co-registered to an average of the PET frames from ~ 4–70 min p.i. using VINCI software. The co-registered MRI scans were segmented into gray matter (GM), white matter, and extra-cerebral fluid, using PVE-lab. Subsequently, 68 regions of interest (ROIs), including whole brain, were derived from the Hammers atlas and used to extract GM time-activity curves (TACs). As a last step, the TACs of 60 out of the 67 ROIs were redefined into nine volume-weighted ROIs by combining the radioactivity at each timepoint according to the equation Bq¯=∑iαi×Bqi/∑iαi , where αi is the volume (in mm^3) of region i, and Bqi the counts per mm^3 of region i. The selection of ROIs was based on the widespread NMDA-R availability in the brain: frontal, temporal, occipital, and parietal cortices; hippocampus; thalamus; insula; brainstem; dorsal striatum; and cerebellum, as well as whole brain GM from the Hammers atlas. Standardized uptake values (SUV; equalling measured activity divided by injected dose per body weight) were calculated for whole brain GM.
# Using the metabolite-corrected arterial plasma input function, all GM TACs were fitted to single-tissue (1T2k), two-tissue irreversible (2T3k), and reversible (2T4k) compartmental models, both with and without an additional parameter for fractional blood volume (VB). The non-metabolite-corrected arterial whole blood curve was used as input function for VB. The optimal tracer kinetic model for describing in vivo kinetics of [^18F]PK-209 was determined according to the Akaike Information Criterion (AIC). Depending on the model preference, outcome measures were the net influx constant (Ki = K1 k3/(k2 + k3)) or the distribution volume (VT=K1/k2(1+k3/k4)) . For subsequent group level analysis (e.g., TRT variability and ketamine effects), all scans were analyzed using the same, most preferred, tracer kinetic model. […]
# [3] = 2T3k_VB, single scan IF, baseline scan
# [4] = 2T3k_VB, single scan IF, ketamine scan
# [5] = mean ketamine versus mean baseline, single scan IF
smiles,measurement,setting,value
"CSc1ccc(Cl)c(NC(=N)N(C)c2cccc(OC[18F])c2)c1 [[^18F]PK-209, 3-(2-chloro-5-(methylthio)phenyl)-1-(3-([^18F]fluoromethoxy)phenyl)-1-methylguanidine]",selectivity for the ion channel of NMDA-R over other targets,[1],high selectivity
same,Mean baseline K i,"[2]; 2T3k_VB, population IF",0.0106 min⁻¹
same,Mean ketamine K i,"[2]; 2T3k_VB, population IF",0.0107 min⁻¹
same,Mean baseline K 1,"[2]; 2T3k_VB, single scan IF",0.492 mL · cm^3 · min^−1
same,Mean baseline K i,"[2]; 2T3k_VB, single scan IF",0.0129 min⁻¹
same,Mean baseline V ND,"[2]; 2T3k_VB, single scan IF",9.25
same,Mean baseline k 3,"[2]; 2T3k_VB, single scan IF",0.0016 min⁻¹
same,Mean ketamine K 1,"[2]; 2T3k_VB, single scan IF",0.516 mL · cm^3 · min^−1
same,Mean ketamine K i,"[2]; 2T3k_VB, single scan IF",0.0128 min⁻¹
same,Mean ketamine V ND,"[2]; 2T3k_VB, single scan IF",9.22
same,Mean ketamine k 3,"[2]; 2T3k_VB, single scan IF",0.0015 min⁻¹
same,V ND,[2]; [3],9.78 and 6.54 and 11.72 and 7.74 and 10.51
same,k 3,[2]; [3],0.0005 min⁻¹ and 0.0029 min⁻¹ and 0.0007 min⁻¹ and 0.0026 min⁻¹ and 0.0014 min⁻¹
same,V ND,[2]; [4],9.66 and 9.75 and 10.30 and 6.56 and 9.84
same,k 3,[2]; [4],0.0014 min⁻¹ and 0.0012 min⁻¹ and 0.0008 min⁻¹ and 0.0020 min⁻¹
same,Mean baseline K i,"[2]; 2T3k_VB, within-subject IF",0.0147 min⁻¹
same,Mean ketamine K i,"[2]; 2T3k_VB, within-subject IF",0.0162 min⁻¹
same,mean SUV90–120,[2]; baseline scans,1.53
same,mean SUVAUC,[2]; baseline scans,289 ± 51 SUV·min
same,increase in mean SUV90–120 from baseline to ketamine scans,[2]; in vivo,10%
same,increase in whole brain SUVAUC following ketamine administration,[2]; individual subjects 6–10,27% and 1% (2×) and 17% and 8%
same,mean SUV90–120,[2]; ketamine scans,1.68
same,mean SUVAUC,[2]; ketamine scans,321 ± 66 SUV·min
same,% Change of mean K i,"[2]; mean ketamine versus mean baseline, population IF",1%
same,% Change of mean K 1,[2]; [5],5%
same,% Change of mean K i,[2]; [5],−1%
same,% Change of mean k 3,[2]; [5],−9%
same,% Change of mean K i,"[2]; mean ketamine versus mean baseline, within-subject IF",10%
same,K i,"[2]; 2T3k_VB, population IF, baseline scan",0.0071 min⁻¹ and 0.0150 min⁻¹ and 0.0183 min⁻¹ and 0.0114 min⁻¹ and 0.0011 min⁻¹
same,K i,"[2]; 2T3k_VB, population IF, ketamine scan",0.0152 min⁻¹ and 0.0162 min⁻¹ and 0.0167 min⁻¹ and 0.0044 min⁻¹ and 0.0010 min⁻¹
same,K i,[2]; [3],0.0046 min⁻¹ and 0.0182 min⁻¹ and 0.0083 min⁻¹ and 0.0193 min⁻¹ and 0.0143 min⁻¹
same,K i,[2]; [4],0.0129 min⁻¹ and 0.0118 min⁻¹ and 0.0084 min⁻¹ and 0.0124 min⁻¹ and 0.0186 min⁻¹
same,K i,"[2]; 2T3k_VB, within-subject IF, baseline scan",0.0038 min⁻¹ and 0.0170 min⁻¹ and 0.0220 min⁻¹ and 0.0200 min⁻¹ and 0.0105 min⁻¹
same,K i,"[2]; 2T3k_VB, within-subject IF, ketamine scan",0.0128 min⁻¹ and 0.0169 min⁻¹ and 0.0201 min⁻¹ and 0.0118 min⁻¹ and 0.0192 min⁻¹
same,% ΔKi,[2]; population IF,113% and 8% and −9% and −62% and −10%
same,% ΔKi,[2]; single scan IF,182% and 1% and 30%
same,% ΔKi,[2]; within-subject IF,237% and 0% and 83%
same,decrease in K1 after ketamine,"[2]; subjects 8 and 9, respectively",18% and 11%
